Assay results published in patent publication US10106523B2, “Amide compound” (ASTELLAS PHARMA INC., priority 2014, dated 2018).

Molecular target: rat EP4 receptor (Rattus norvegicus, UniProt P43114)
Test: Evaluation test of rat EP4 receptor affinity ([3H]PGE2 binding, membrane fraction of HEK-293 cells)
Set-up: expressed in transfected cells; host or cells: HEK-293 (ATCC CRL-1573), transient
Conditions: 0.3 nmol/L [3H]PGE2, rat EP4 cell membrane fraction, room temperature 1 hour; read-out: Ki value with respect to the rat EP4 receptor
Procedure: Test Example 1: Evaluation Test of Rat EP4 Receptor Affinity
Construction of Rat EP4 Receptor Expressing Vector:
A rat EP4 receptor gene (GenBank accession No.: NM_032076.1) was transfected into an expression vector pcDNA3.1-V5-His-TOPO (Invitrogen Inc.).
Transient Expression of Rat EP4 Receptor:
The expression vector of a rat EP4 receptor was transfected into an HEK-293 cell (ATCC No.: CRL-1573). The transfection was carried out according to an appended instruction, using Lipofectoamine (registered trademark) 2000 reagent (Invitrogen Inc.). After the transfection, the cells were cultured in an α-MEM culture medium for 20 to 24 hours.
Preparation of Membrane Fraction:
The culture medium was removed by aspiration, 10 mL of cooled phosphate buffered saline (PBS) was added thereto per 15 cm dish, and the cells were scraped using a cell scraper (Sumitomo Bakelite). […]
[^3H]PGE2 and a cell membrane fraction were diluted with an assay buffer (50 mmol/L HEPES-NaOH, 10 mmol/L MgCl2, pH 7.5), and the test compound and unlabeled PGE2 (Cayman) were diluted with DMSO and the assay buffer. […] The radioactivity was measured using a TopCount (Perkin Elmer). […] The specific binding amount was determined by subtracting the non-specific binding amount from the total binding amount. The Ki value was calculated according to a standard method.

Sequence of rat EP4 receptor (P43114 whole entry): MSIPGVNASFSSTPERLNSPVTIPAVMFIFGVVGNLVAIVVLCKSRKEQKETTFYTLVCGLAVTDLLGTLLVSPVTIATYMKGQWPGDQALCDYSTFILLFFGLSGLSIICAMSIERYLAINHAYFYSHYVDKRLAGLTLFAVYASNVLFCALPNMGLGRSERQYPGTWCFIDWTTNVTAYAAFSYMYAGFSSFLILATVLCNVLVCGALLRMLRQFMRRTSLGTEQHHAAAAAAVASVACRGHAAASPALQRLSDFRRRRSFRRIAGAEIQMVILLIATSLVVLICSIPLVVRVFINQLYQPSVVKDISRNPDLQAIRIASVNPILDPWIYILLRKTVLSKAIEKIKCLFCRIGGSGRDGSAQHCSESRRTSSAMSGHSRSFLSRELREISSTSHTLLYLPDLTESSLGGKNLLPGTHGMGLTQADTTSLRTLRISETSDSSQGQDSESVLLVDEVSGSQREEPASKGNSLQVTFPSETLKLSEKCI

Work on `Cc1cc(C(=O)N[C@@H](C)c2ccc(C(=O)O)cc2)n(Cc2ccc(Cl)cc2)n1` [Example 205 in Patent Document 1, reference compound] yielded a Ki of 140 nM.
